Where two headings read alike, the source gives them in different places.

Data set [1] concerns K pneumoniae (clinical isolate). The data set is described as follows: MIC panel of pathogens, Table 4. The class given is cell-based. The settings on record: clinical isolate from Cottage Hospital.
The subject of another data set is N. gonorrhoeae. The experiment in a line: MIC panel of pathogens, Table 4. The data set is classed as cell-based. The settings on record: Neisseria gonorrhoeae.
Data set [2] has as its system S. aureus (MRSA) (clinical isolate). The experiment in a line: MIC panel of pathogens, Table 4. The class given is cell-based. The settings on record: Staphylococcus aureus, clinical isolate from Cottage Hospital.
The subject of another data set is S. aureus (MSSA). The data set is described as follows: MIC panel of pathogens, Table 4. The data set is classed as cell-based. As to conditions: Staphylococcus aureus.
A further data set concerns E. coli ATCC25922 (WT). The experiment in a line: MIC against resistant strains, Tables 5a-5d. The data set is classed as cell-based. The settings on record: Escherichia coli, n = 3. The gist of the method:
(§1)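 Values are minimum inhibitory concentrations from a bacterial growth-inhibition assay run on strains resistant to common antibacterials.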

Data set [3] concerns K. pneumoniae CDC0010 (MDR). The experiment in a line: MIC against resistant strains, Tables 5a-5d. The data set is classed as cell-based. As to conditions: Klebsiella pneumoniae, n = 3. The gist of the method:
as §1

The subject of the next data set is E. faecium 1674620 (VRE). The data set is described as follows: MIC against resistant strains, Tables 5a-5d. The settings on record: Enterococcus faecium, n = 3. The class given is cell-based. Put shortly: as §1
The subject of data set [4] is K. aerogenes (ATCC 13048). The data set is described as follows: MIC broth microdilution method, Table 3. As to conditions: Klebsiella aerogenes, ATCC13048.
A further data set concerns S. pneumoniae Daw 1. The experiment in a line: MIC panel of pathogens, Table 4. The class given is cell-based. As to conditions: Streptococcus pneumoniae, DAW1.
The test system of the next data set is Y. pseudotuberculosis. The data set is described as follows: microbe, parasite or virus in culture. As to conditions: Yersinia pseudotuberculosis. The class given is cell-based.
Data set [5] deals with primary human hepatocytes. The experiment in a line: Cytotoxicity tested by Eurofins Pharma Discovery Services. The class given is cell-based. As to conditions: Hepatocyte, data provided by Eurofins, read-out: IC50.
The test system of data set [6] is RAW264.7 (ATCC TIB-71) cells. The experiment in a line: Cytotoxicity, MTT assay. The settings on record: Mus musculus, RAW264.7; RAW 264.7; MTT, 24 hours incubation; read-out: IC50. The data set is classed as cell-based, murine. The protocol:
Before removing the frozen cell stocks from liquid nitrogen, culture medium was pre-warmed to 37° C. The frozen tube was then removed from liquid nitrogen and placed into a 37° C. water bath and shaken gently to thaw the cell stock as quickly as possible. A small portion of the pre-warmed culture medium was added to the cell solution. The cell suspension was then centrifuged at 1000 r/min for 3 minutes. The supernatant was discarded and the cells were resuspended in fresh culture medium.
NIH 3T3 (ATCC CRL-1658) and Hep G2 (ATCC HB-8065) cells were cultured with DMEM+10% FBS in 100 mm dishes. Cells were lifted for subculture or testing when confluence reached ˜60% by treating with 1× trypsin (incubated for 3 min at 37° C.). J774 (ATCC TIB-67) cells were cultured with DMEM+10% FBS in 100 mm dishes. Cells were lifted for subculture or testing when confluence reached ˜80% using a cell scraper. RAW264.7 (ATCC TIB-71) cells were cultured with DMEM+10% heat-inactivated FBS+1% pen/strep in T75 flasks. Cells were lifted for subculture or testing when confluence reached ˜80% using a cell scraper.
• 1. Cells were lifted and resuspended in culture medium. The number of cells in the cell suspension was determined using an auto-cell counter: 10 μL of the cell suspension was mixed with 10 μL 1× trypan blue (filtered with 0.2 μm PES filter) and the mixture was loaded onto a cell counting slide. Based on the concentration of viable cells, the cell suspension was further diluted to achieve the desired density. • 2. […] The 96-well plates were analyzed in a plate reader using the following method: shake for 5 minutes, wait for 30 seconds, and measure absorbance at 570 nm. • 8. Data processing: The average of background Abg was calculated from the blank column. […] The average A. and standard deviation Se of each experimental group and the average Ac and standard deviation Sc for control group (with pure culture medium incubation) were then calculated. The cell viability was determined as Ae/Ac×100% and corresponding error as Se/Ae×100%. […]
For orientation: Tetrazolium assays rely on reduction of a dye to a coloured formazan, in cell work by metabolically active cells.

The test system of a further data set is S. pneumoniae D39. The experiment in a line: MIC panel of pathogens, Table 4. The data set is classed as cell-based. The settings on record: Streptococcus pneumoniae.
The test system of the next data set is A. baumannii. The experiment in a line: MIC panel of pathogens, Table 4. The data set is classed as cell-based. As to conditions: Acinetobacter baumannii.
Data set [7] is described as follows: Cytotoxicity tested by Eurofins Pharma Discovery Services. As to conditions: human, Hep G2 cells; Hep G2, Eurofins; at the concentration given as IC50 bound; read-out: cell viability at the highest or lowest test concentration. The data set is classed as cell-based.
Another data set in a line: Cytotoxicity, MTT assay. The data set is classed as cell-based. As to conditions: at the concentration given as IC50 bound, read-out: cell viability at the highest or lowest test concentration. The gist of the method:
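Cells seeded at 5000/well (NIH 3T3) or 10000/well (Hep G2, J774, RAW264.7) in DMEM+10% FBS, incubated overnight, then exposed 24 h to 2-fold serial dilutions (9 concentrations, six replicates each). MTT added for 4 h, formazan dissolved in DMSO, A570 read. Viability expressed as blank-corrected absorbance relative to medium-only control.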

The IC50 is the concentration needed to halve the response being measured. Regarding `CCCCCC[N+](C)(C)CCCCCCOc1cc(/C=C/c2cc(OCCCCCC[N+](C)(C)CCCCCC)cc(OCCCCCC[N+](C)(C)CCCCCC)c2)cc(OCCCCCC[N+](C)(C)CCCCCC)c1` [Formula E], the MIC in [1] stood at 4 µg/mL; against N. gonorrhoeae it was 0.5 µg/mL; in [2] it was 1 µg/mL; in the data set with S. aureus (MSSA), 1 µg/mL; in the data set on E. coli ATCC25922 (WT), 1 µg/mL; in data set [3] it was 4 µg/mL. The MIC was 0.25 µg/mL against E. faecium 1674620 (VRE); 8 µg/mL in [4]; 8 µg/mL against S. pneumoniae Daw 1; 1 µg/mL with Y. pseudotuberculosis; 4 µg/mL against S. pneumoniae D39; 4 µg/mL in the data set with A. baumannii. Moreover, the IC50 worked out at 13.2 µg/mL in data set [5] and 3.76 µg/mL in data set [6].
With `C[N+](C)(C)CCCCOc1cc(/C=C/c2ccc(/C=C/c3cc(OCCCC[N+](C)(C)C)cc(OCCCC[N+](C)(C)C)c3)cc2)cc(OCCCC[N+](C)(C)C)c1.[I-].[I-].[I-].[I-]` [Formula F], the viability in [7] amounted to 70%. For the same compound, the MIC in the data set on E. coli ATCC25922 (WT) was found to be 8 µg/mL; in [3], 64 µg/mL; in the data set on E. faecium 1674620 (VRE) it was 8 µg/mL; in data set [4], 32 µg/mL. Moreover, in [5], the IC50 was above 324 µg/mL. The viability at 24 h turned out to be 100% in “Cytotoxicity, MTT assay” (human, Hep G2 (ATCC HB-8065) cells, Hep G2); 51% in “Cytotoxicity, MTT assay” (mouse, J774 (ATCC TIB-67) cells); 56.2% in “Cytotoxicity, MTT assay” (mouse, NIH 3T3 (ATCC CRL-1658) cells, NIH 3T3).

(Values after patent publication US11713318B2, “Short conjugated oligoelectrolytes and uses thereof” (The Regents Of The University Of California, priority 2018, dated 2023).)
